Data from patent US6465482B2, “Arylpiperazinyl-cyclohexyl indole derivatives for the treatment of depression” (Wyeth, priority 1999, dated 2002).

Legend:
[1] = molecular target: T1, human 5-HT1A receptor subtype (Homo sapiens, UniProt P08908); test: 5-HT1A receptor binding, [3H]8-OH-DPAT, CHO cell membranes; conditions: [3H]8-OH-DPAT 1.5 nM
T1 construct: expressed in transfected cells
T1 sequence (P08908 1-422): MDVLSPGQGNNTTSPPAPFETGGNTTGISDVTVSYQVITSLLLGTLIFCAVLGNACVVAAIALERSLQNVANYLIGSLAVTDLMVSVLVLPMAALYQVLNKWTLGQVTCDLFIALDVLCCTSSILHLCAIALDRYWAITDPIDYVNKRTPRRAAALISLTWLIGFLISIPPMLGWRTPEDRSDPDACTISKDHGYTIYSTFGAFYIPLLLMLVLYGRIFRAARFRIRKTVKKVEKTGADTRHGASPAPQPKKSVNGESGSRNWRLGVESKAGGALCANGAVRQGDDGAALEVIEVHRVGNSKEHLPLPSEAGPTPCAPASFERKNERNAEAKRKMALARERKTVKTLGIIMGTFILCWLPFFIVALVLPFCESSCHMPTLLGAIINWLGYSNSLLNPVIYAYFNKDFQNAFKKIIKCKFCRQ
Description: (§1) The PCR cloning of the human 5-HT1A receptor subtype from a human genomic library has been described previously Chanda et al., Mol. Pharmacol., 43:516 (1993). A stable Chinese hamster ovary cell line expressing the human 5-HT1A receptor subtype (5-HT1A.CH2O cells) was employed throughout this study. Cells were maintained in DMEM supplemented with 10% fetal calf serum, non-essential amino acids and penicillin/streptomycin.
Cells were grown to 95-100% confluency as a monolayer before membranes were harvested for binding studies. Cells were gently scraped from the culture plates, transferred to centrifuge tubes, and washed twice by centrifugation (2000 rpm for 10 min., 4° C.) in buffer (50 mM Tris; pH 7.5). The resulting pellets were aliquoted and placed at −80° C. On the day of assay, the cells were thawed on ice, and resuspended in buffer. Studies were conducted using [^3H]8-OH-DPAT as the radioligand. The binding assay was performed in 96 well microtiter plates in a final total volume of 250 μL of buffer. Competition experiments were performed by using 7 concentrations of unlabelled drug and a final ligand concentration of 1.5 nM. Non-specific binding was determined in the presence of 10 μM 5HT. Saturation analysis was conducted by using [^3H]8-OH-DPAT at concentaritions ranging from 0.3-30 nm Following a 30 minute incubation at room temperature, the reaction was terminated by the addition of ice cold buffer and rapid filtration using a M-96 Brandel Cell Harvester (Gaithersburg, Md.) through a GF/B filter presoaked for 30 minutes in 0.5% polyethylenenimine.

[2] = molecular target: T2, serotonin transporter (Rattus norvegicus, UniProt P31652); test: serotonin transporter affinity, 3H-paroxetine binding, frontal cortical membranes; conditions: 3H-paroxetine 0.1 nM; read-out: ST (Ki, nM,)
T2 construct: frontal cortical membranes prepared from male Sprague-Dawley rats; from tissue; host or cells: rat frontal cortex membranes
T2 sequence (P31652 whole entry): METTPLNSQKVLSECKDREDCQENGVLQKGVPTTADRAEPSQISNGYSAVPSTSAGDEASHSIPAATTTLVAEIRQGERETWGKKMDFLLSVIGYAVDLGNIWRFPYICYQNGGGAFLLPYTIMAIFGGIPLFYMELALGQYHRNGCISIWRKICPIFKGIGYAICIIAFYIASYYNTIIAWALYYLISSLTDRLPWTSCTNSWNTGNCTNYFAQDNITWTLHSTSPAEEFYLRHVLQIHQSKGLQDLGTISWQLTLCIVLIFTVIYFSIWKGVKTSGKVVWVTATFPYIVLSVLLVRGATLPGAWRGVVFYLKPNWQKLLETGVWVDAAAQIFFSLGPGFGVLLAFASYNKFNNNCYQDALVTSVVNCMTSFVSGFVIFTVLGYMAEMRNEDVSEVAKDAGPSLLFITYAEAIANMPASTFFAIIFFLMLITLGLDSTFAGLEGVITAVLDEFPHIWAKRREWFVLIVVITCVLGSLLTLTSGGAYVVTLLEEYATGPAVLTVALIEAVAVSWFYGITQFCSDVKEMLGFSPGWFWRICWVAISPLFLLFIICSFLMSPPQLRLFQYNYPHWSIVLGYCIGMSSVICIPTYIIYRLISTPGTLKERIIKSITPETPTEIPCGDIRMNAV
Description: A protocol similar to that used by Cheetham et al., Neuropharmacol. […] Briefly, frontal cortical membranes prepared from male Sprague-Dawley rats were incubated with ^3H-paroxetine (0.1 nM) for 60 minutes at 25° C. […] All reactions are terminated by the addition of ice cold Tris buffer followed by rapid filtration using a Tom Tech filtration device to separate bound from free ^3H-paroxetine.

[3] = molecular target: T3, 5-HT1A cloned receptor membrane fragments (Homo sapiens, UniProt P08908); test: [35S]-GTPγS binding assay; assay type: biochemical; conditions: relative to excess 8-OH-DPAT maximum agonist response
T3 construct: expressed in transfected cells
T3 sequence (P08908 1-422): T1 sequence (P08908 1-422)
Description: The [^35S]-GTPγS biding assay was similar to that used by Lazarenno and Birdsall, Br. J. Pharmacol. 109:1120 (1993). Briefly, 5-HT1A cloned receptor membrane fragments (as used for 5-HT1A receptor binding assays were stored at −70° C. unit needed. When needed, membranes were rapidly thawed, centrifuged at […] for 10 minutes and resuspended at 4° C. for 10 minutes in assay buffer (25 mM HEPES, 3 mM MgCl2, 100 mM NaCl, 1 mM EDTA, 10 uM GDP, […], pH 8.0). These membranes were then incubated for 30 minutes at 30+ C. with [^35S]GTPgS (1 nM) in the presence of vehicle, test compound (one to eight concentrations), or excess 8-OH-DPAT to define maximum agonist response. All reactions are terminated by the addition of ice cold Tris buffer followed by rapid filtration using a Tom Tech® filtration device to separate bound from free [^35S]GTPgS. Agonists produce an increase in the amount of [^35S]GTPgS bound whereas antagonists produce no increase in binding. Bound radioactivity was counted and analyzed as above.

[4] = molecular target: T4, human 5-HT1A receptor subtype (5-HT1A CHO cells) (Homo sapiens, UniProt P08908); test: forskolin-stimulated cAMP formation (cAMP SPA assay); assay type: cell-based; conditions: forskolin 1 uM
T4 construct: expressed in transfected cells
T4 sequence (P08908 1-422): T1 sequence (P08908 1-422)
Description: as §1
The following assays were performed by incubating the cells with DMEM containing 25 mM HEPES, 5 mM theophylline and 10 μM pargyline for a period of 20 minutes at 37° C. Functional activity was assessed by treating the cells with forskolin (1 uM final concentration) followed immediately by test compound (6 concentrations) for an additional 10 minutes at 37° C. In separate experiments, 6 concentrations of antagonist were preincubated for 20 minutes prior to the addition of 10 nM 8-OH-DPAT and forskolin. The reaction was terminated by removal of the media and addition of 0.5 ml ice cold assay buffer. Plates were stored at −20° C. prior to assessment of cAMP formation by a cAMP SPA assay (Amersham).

Structure (SMILES)	Ki [1] [nM]	Ki [2] [nM]	Emax [3] [%]	Emax [4] [%]
Fc1ccc2c(c1)[nH]cc2[C@H]1CC[C@H](N2CCN(c3cccc4c3OCCO4)CC2)CC1 [Example 25b, 3-{(1,4-trans)-4-[4-(2,3-Dihydro-benzo[1,4]dioxin-5-yl)-piperazin-1-yl]-cyclohexyl}-6-fluoro-1H-indole]	9.66	58	46	–
N#Cc1ccc2[nH]cc([C@H]3CC[C@@H](N4CCN(c5cccc6[nH]ccc56)CC4)CC3)c2c1 [Example 7a, 3-{4-[(1,4-cis)-4-(1H-Indol-4-yl)-piperazinyl-1-yl]cyclohexyl}-1H-indole-5-carbonitrile]	–	1.62	0	0
c1cc(N2CCN([C@H]3CC[C@H](c4c[nH]c5ncccc54)CC3)CC2)c2cc[nH]c2c1 [Example 10b, 3-{(1,4-trans)-4-[4-(1H-Indole-4-yl)-piperazin-1-yl]-cyclohexyl}-1H-pyrrolo[2,3-b]pyridine]	7.78	–	14	79
Fc1ccc2[nH]cc([C@H]3CC[C@@H](N4CCN(c5cccc6[nH]ccc56)CC4)CC3)c2c1 [Example 3a, 5-Fluoro-3-[cis-4-[4-(1H-indol-4-yl)-1-piperazinyl]cyclohexyl]-1H-indole]	36.7	–	10	0
COc1ccc2[nH]cc([C@H]3CC[C@H](N4CCN(c5ccccc5OC)CC4)CC3)c2c1 [Example 20b, 5-Methoxy-3-{(1,4-trans)-4-[4-(2-methoxy-phenyl)-piperazin-1-yl]-cyclohexyl}-1H-indole]	14.9	–	33	75.5
COc1ccccc1C1CCN([C@H]2CC[C@H](c3c[nH]c4ccc(F)cc43)CC2)CC1 [Example 19b, 5-Fluoro-3-{(1,4-trans)-4-[4-(2-methoxy-phenyl)-piperidin-1-yl]-cyclohexyl}-1H-indole]	26.2	–	74	92
N#Cc1ccc2[nH]cc([C@H]3CC[C@H](N4CCN(c5cccc6cccnc56)CC4)CC3)c2c1 [Example 29b, 3-[(1,4-trans)-4-(4-Quinolin-8-yl-piperazin-1-yl)-cyclohexyl]-1H-indole-5-carbonitrile]	–	–	70	–
N#Cc1ccc2[nH]cc([C@H]3CC[C@H](N4CCN(c5cccc6c5OCCO6)CC4)CC3)c2c1 [Example 26b, 3-{(1,4-trans)-4-[4-(2,3-Dihydro-benzo[1,4]dioxin-5-yl)-piperazin-1-yl]-cyclohexyl}-1H-indole-5-carbonitrile]	8.5	23	39	–
N#Cc1ccc2[nH]cc([C@H]3CC[C@@H](N4CCN(c5cccc6c5OCCO6)CC4)CC3)c2c1 [Example 26a, 3-{(1,4-cis)-4-[4-(2,3-Dihydro-benzo[1,4]dioxin-5-yl)-piperazin-1-yl]-cyclohexyl}-1H-indole-5-carbonitrile]	59.1	4.1	18	0
